Results on 28 molecules are retold here after US20210070747A1, “2(1H)-QUINOLINONE DERIVATIVE” (priority 2017, published 2021).

The structures appear in SMILES notation. pIC50: −log10 of the molar value. Values after ≈ are worked out from the molar mass of the structure shown. Like-named read-outs stand apart in the source and are kept apart here.

Assay [1] addresses T1, E. coli DNA gyrase (Escherichia coli, UniProt P0AES6).
T1 construct: made in house; host or cells: E. coli BL21 (DE3)
In words: Test for evaluating the activity of inhibiting E. coli DNA gyrase enzyme (Method 1, supercoiling, Inspiralis enzyme). The format is biochemical. The method, then:
Test Example 1-1 Test for Evaluating the Activity of Inhibiting E. coli DNA Gyrase Enzyme (Method 1)
The enzymatic activity of E. coli DNA gyrase was measured by a method comprising reacting DNA gyrase and its substrate, relaxed pBR322 (Inspiralis), in the presence of ATP and detecting the post-reaction supercoiled pBR322/relaxed pBR322 ratio with H19 (Profoldin).
Specifically, to 1 ng/μL of relaxed pBR322, E. coli DNA gyrase enzyme (Inspiralis) was added at a final concentration of 0.006 U/μL and the mixture was incubated for 60 minutes at room temperature. This reaction was carried out in 20 mmol/L tris-HCl buffered solution (pH 8.0) comprising 0.5 mmol/L ATP, 0.005% bridge 35, 35 mmol/L ammonium acetate, 8 mmol/L magnesium chloride, 4.6% glycerol, and 1 mmol/L dithiothreitol. To the reaction mixture, H19 was added to bring the reaction to an end; thereafter, the supercoiled pBR322/relaxed pBR322 ratio was detected at excitation wavelength/emission wavelength=485 nm/535 nm. An inhibition curve was obtained by allowing the analyte compound to be present at varying concentrations during the reaction described above. […] The test results of interest are shown in [Table 20-1] and [Table 20-2].

Assay [2] deals with E. Coli ATCC 25922. In words: Test for evaluating antibacterial activity (E. coli), broth microdilution MIC. The format is cell-based. As to conditions: Escherichia coli, ATCC25922; 35° C., 18 hours, cation-adjusted Mueller-Hinton medium. The gist of the method:
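Broth microdilution per modified CLSI method in cation-adjusted Mueller-Hinton medium. Inoculum from overnight heart infusion agar growth, McFarland 0.5 suspension diluted 10-fold; incubation 35° C for 18 hours. MIC taken as lowest drug concentration with no visible growth.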
(Dilution methods test growth across graded concentrations, often in twofold steps.)

Where [3] appears, read: Method 1, read-out: E. Coli Gyrase supercoiling IC50.

The term pIC50 denotes the negative decadic logarithm of the IC50, by convention in mol/L. By MIC is commonly meant the smallest concentration in the dilution series that meets the test's criterion for growth inhibition. `CNc1cccc2cc(C(=O)NC3CCN(c4ncc(C(=O)O)s4)C3)c(=O)[nH]c12` (stereo not drawn) [Example 9, 2-(3-{[8-(methylamino)-2-oxo-1,2-dihydroquinoline-3-carbonyl]amino}pyrrolidine-1-yl)-1,3-thiazole-5-carboxylic acid]: the pIC50 in assay [1] (setting [3]) was 7.29. For the same molecule, the MIC in assay [2] was more than 64 µg/mL.
For the molecule `CNc1cccc2cc(C(=O)NC3CN(c4ncc(C(=O)O)s4)C3)c(=O)[nH]c12` [Example 10, 2-(3-{[8-(methylamino)-2-oxo-1,2-dihydroquinoline-3-carbonyl]amino}azetidine-1-yl)-1,3-thiazole-5-carboxylic acid], in assay [1] (setting [3]), the pIC50 was 6.34. Besides, the minimal inhibitory concentration (MIC) in assay [2] was more than 64 µg/mL.
With `CNc1cccc2cc(C(=O)Nc3ccccc3)c(=O)[nH]c12` [Example 11, 8-(methylamino)-2-oxo-N-phenyl-1,2-dihydroquinoline-3-carboxamide], the negative logarithm of the IC50 (pIC50) in assay [1] (setting [3]) is 6.61. In assay [2], the minimal inhibitory concentration (MIC) was more than 64 µg/mL.
Turning to `CNc1cccc2cc(C(=O)Nc3cncnc3)c(=O)[nH]c12` [Example 12, 8-(methylamino)-2-oxo-N-(pyrimidine-5-yl)-1,2-dihydroquinoline-3-carboxamide], the pIC50 in assay [1] (setting [3]) was 7.68. In assay [2], this molecule gave an MIC of more than 64 µg/mL.
As for `CNc1cccc2cc(C(=O)N[C@@H](Cc3c[nH]cn3)C(=O)O)c(=O)[nH]c12` [Example 13, N-[8-(methylamino)-2-oxo-1,2-dihydroquinoline-3-carbonyl]-L-histidine-trifluoroacetate], the pIC50 in assay [1] (setting [3]) is 4.50.
As to `CNc1cccc2cc(C(=O)Nc3cccnc3)c(=O)[nH]c12` [Example 15, 8-(methylamino)-2-oxo-N-(pyridine-3-yl)-1,2-dihydroquinoline-3-carboxamide], the pIC50 in assay [1] (setting [3]) is 7.45. The MIC in assay [2] is more than 64 µg/mL.
Consider `CNc1cccc2cc(C(=O)Nc3cnc(C(=O)O)nc3)c(=O)[nH]c12` [Example 20, 5-{[8-(methylamino)-2-oxo-1,2-dihydroquinoline-3-carbonyl]amino}pyrimidine-2-carboxylic acid], for which the negative logarithm of the IC50 (pIC50) in assay [1] (setting [3]) was 8.92. In assay [2], this molecule displayed an MIC of more than 16 µg/mL.
As a reminder, the inhibition is how much of the control response was suppressed. Take `CNc1cccc2cc(C(=O)NCc3ccccn3)c(=O)[nH]c12` [Example 21, 8-(methylamino)-2-oxo-N-[(pyridine-2-yl)methyl]-1,2-dihydroquinoline-3-carboxamide]: 3 µM produced 44% inhibition in assay [1] (Method 1, at 3000 nM).
For `CNc1cccc2cc(C(=O)NC3CCN(c4nccs4)C3)c(=O)[nH]c12` (stereo not drawn) [Example 23, 8-(methylamino)-2-oxo-N-[1-(1,3-thiazole-2-yl)pyrrolidine-3-yl]-1,2-dihydroquinoline-3-carboxamide], the pIC50 in assay [1] (setting [3]) is 6.16. Further, in assay [2], the MIC is more than 4 µg/mL.
With `CNc1cccc2cc(C(=O)Nc3cnc(NC(=O)OC(C)(C)C)s3)c(=O)[nH]c12` [Example 24, tert-butyl(5-{[8-(methylamino)-2-oxo-1,2-dihydroquinoline-3-carbonyl]amino}-1,3-thiazole-2-yl)carbamate], the negative logarithm of the IC50 (pIC50) in assay [1] (setting [3]) was 6.19. The MIC in assay [2] is more than 32 µg/mL.
The molecule `CNc1cccc2cc(C(=O)Nc3cnc(N)s3)c(=O)[nH]c12.Cl` [Example 25, N-(2-Amino-1,3-thiazol-5-yl)-8-(methylamino)-2-oxo-1,2-dihydroquinoline-3-carboxamide-hydrochloride] gave a pIC50 in assay [1] of 7.18. In assay [2], this molecule showed an MIC of more than 16 µg/mL.
For `CNc1cccc2cc(C(=O)Nc3ccc(C(=O)NCCN4CCOCC4)cc3)c(=O)[nH]c12` [Example 26, 8-(methylamino)-N-(4-{[2-(morpholine-4-yl)ethyl]carbamoyl}phenyl)-2-oxo-1,2-dihydroquinoline-3-carboxamide], the negative logarithm of the IC50 (pIC50) in assay [1] (setting [3]) is 7.75. Besides, in assay [2], the MIC is more than 32 µg/mL.
The like results for `CNc1cccc2cc(C(=O)NCc3csc(NC(=O)OC(C)(C)C)n3)c(=O)[nH]c12` [Example 27, tert-butyl[4-({[8-(methylamino)-2-oxo-1,2-dihydroquinoline-3-carbonyl]amino}methyl)-1,3-thiazole-2-yl]carbamate] were, in that order, 6.59 and more than 8 µg/mL.
`CNc1cccc2cc(C(=O)NCCc3cccnc3)c(=O)[nH]c12` [Example 30, 8-(methylamino)-2-oxo-N-[2-(pyridine-3-yl)ethyl]-1,2-dihydroquinoline-3-carboxamide]: in assay [1] (setting [3]), the pIC50 is 6.67. The minimum inhibitory concentration (MIC) in assay [2] is more than 16 µg/mL.
For `CNc1cccc2cc(C(=O)NCc3csc(N)n3)c(=O)[nH]c12.Cl` [Example 31, N-[(2-amino-1,3-thiazole-4-yl)methyl]-8-(methylamino)-2-oxo-1,2-dihydroquinoline-3-carboxamide-hydrochloride], in assay [1], the negative-log IC50 (pIC50) is 6.49. The molecule further yielded an MIC in assay [2] of more than 16 µg/mL.
In the case of `CNc1cccc2cc(C(=O)Nc3cnc(N4CCC(N5CCN(CCO)CC5)CC4)nc3)c(=O)[nH]c12` [Example 42, N-(2-{4-[4-(2-hydroxyethyl)piperazine-1-yl]piperidine-1-yl}pyrimidine-5-yl)-8-(methylamino)-2-oxo-1,2-dihydroquinoline-3-carboxamide], the negative logarithm of the IC50 (pIC50) in assay [1] (setting [3]) is 7.13. The MIC in assay [2] was more than 64 µg/mL.
As to `CNc1cccc2cc(C(=O)Nc3ccc(C(=O)N4CCOCC4)cc3)c(=O)[nH]c12` [Example 43, 8-(methylamino)-N-[4-(morpholine-4-catbonyl)phenyl]-2-oxo-1,2-dihydroquinoline-3-carboxamide], the pIC50 in assay [1] (setting [3]) was 6.76. Also, the MIC in assay [2] was more than 32 µg/mL.
The molecule `CNc1cccc2cc(C(=O)Nc3ccc(C(=O)O)cc3OCCN3CCN(C)CC3)c(=O)[nH]c12.Cl` [Example 44, 4-{[8-(methylamino)-2-oxo-1,2-dihydroquinoline-3-carbonyl]amino}-3-[2-(4-methylpiperazine-1-yl)ethoxy] benzoic acid-hydrochloride] gave a pIC50 in assay [1] of 6.43. This molecule showed an MIC in assay [2] of more than 16 µg/mL.
As for `CNc1cccc2cc(C(=O)Nc3cnc(N4CCC(N)CC4)nc3)c(=O)[nH]c12.O=CO` [Example 45, N-[2-(4-aminopiperidine-1-yl)pyrimidine-5-yl]-8-(methylamino)-2-oxo-1,2-dihydroquinoline-3-carboxamide-formate], the negative logarithm of the IC50 (pIC50) in assay [1] is 6.99. The molecule also yielded an MIC in assay [2] of more than 16 µg/mL.
Molecule `CNc1cccc2cc(C(=O)Nc3ccc(C(=O)NCCCN)cc3)c(=O)[nH]c12.Cl` [Example 46, N-{4-[(3-aminopropyl)carbamoyl]phenyl}-8-(methylamino)-2-oxo-1,2-dihydroquinoline-3-carboxamide-hydrochloride] gave a pIC50 in assay [1] of 8.13. In addition, the MIC in assay [2] was more than 1 µg/mL.
In assay [1], `CNc1cccc2cc(C(=O)Nc3ccc(C(=O)NCC4CCNCC4)cc3)c(=O)[nH]c12.O=CO` [Example 47, 8-(methylamino)-2-oxo-N-(4-{[(piperidine-4-yl)methyl]carbamoyl}phenyl)-1,2-dihydroquinoline-3-carboxamide-formate] had a pIC50 of 7.97. In assay [2], this molecule came in with an MIC of more than 32 µg/mL.
`CNc1cccc2cc(C(=O)Nc3ccc(C(=O)O)cc3OCCCN)c(=O)[nH]c12.O=CO` [Example 48, 3-(3-aminopropoxy)-4-{[8-(methylamino)-2-oxo-1,2-dihydroquinoline-3-carbonyl]amino} benzoic acid-formate] gave a negative logarithm of the IC50 (pIC50) in assay [1] of 6.54. In assay [2], this molecule returned an MIC of more than 16 µg/mL.
With `CNc1cccc2cc(C(=O)Nc3ccc(C(=O)NCCC[C@H](N)C(=O)O)cc3)c(=O)[nH]c12` [Example 49, N5-(4-{[8-(methylamino)-2-oxo-1,2-dihydroquinoline-3-carbonyl]amino}benzoyl)-L-ornithine], the negative logarithm of the IC50 (pIC50) in assay [1] (setting [3]) was 7.69. The minimal inhibitory concentration (MIC) in assay [2] was more than 8 µg/mL.
For `CNc1cc(F)cc2cc(C(=O)Nc3cnc(NCCN4CCN(C)CC4)nc3)c(=O)[nH]c12` [Example 51, 6-fluoro-8-(methylamino)-N-(2-{[2-(4-methylpiperazine-1-yl)ethyl]amino}pyrimidine-5-yl)-2-oxo-1,2-dihydroquinoline-3-carboxamide], the negative-log IC50 (pIC50) in assay [1] (setting [3]) was 8.26. Also, inhibition of growth in assay [2] (MIC) required 16 µg/mL (≈ 35.2 µM).
As for `CNc1cc(F)cc2cc(C(=O)Nc3cnc(C(=O)NCCN4CCOCC4)nc3)c(=O)[nH]c12` [Example 53, 6-fluoro-8-(methylamino)-N-(2-{[2-(morpholine-4-yl)ethyl]carbamoyl}pyrimidine-5-yl)-2-oxo-1,2-dihydroquinoline-3-carboxamide], in assay [1] (setting [3]), the pIC50 is 8.83. The lowest concentration to inhibit growth in assay [2] (MIC) was 0.25 µg/mL (≈ 0.533 µM).
`CNc1cc(F)cc2cc(C(=O)NCCc3ccccc3)c(=O)[nH]c12` [Example 78, 6-fluoro-8-(methylamino)-2-oxo-N-(2-phenylethyl)-1,2-dihydroquinoline-3-carboxamide] showed an inhibition at 0.3 µM in assay [1] (Method 1, at 300 nM) of 12%.
On to `CNc1cc(F)cc2cc(C(=O)NCCc3ccccn3)c(=O)[nH]c12` [Example 79, 6-fluoro-8-(methylamino)-2-oxo-N-[2-(pyridine-2-yl)ethyl]-1,2-dihydroquinoline-3-carboxamide], for which the negative logarithm of the IC50 (pIC50) in assay [1] (setting [3]) was 6.76.
Consider `Nc1cccc2cc(C(=O)Nc3cccc(C(=O)O)c3)c(=O)[nH]c12` [Example 165, 3-[(8-Amino-2-oxo-1,2-dihydroquinoline-3-carbonyl)amino]benzoic acid-trifluoroacetate], for which, in assay [1] (Method 1, at 50000 nM), the inhibition at 50 µM worked out at 27%.
